From patent publication US20140066438A1, “DOPAMINE RECEPTOR D2 ANTAGONIST FOR PREVENTION AND TREATMENT OF FLAVIVIRUS INFECTION” (Academia Sinica, priority 2012, published 2014)
Read-outs that look alike come from different tables or passages of the source.

Experiments:
[1] = tested on: clathrin-dependent endocytosis; details: cited from earlier work
DENV-2 [2] = experiment: Virus binding assay (confocal microscopy, plaque-forming assay of cell-bound virus)
HCV = details: cell-based screening; cited from earlier work
clathrin = experiment: Clathrin distribution during viral entry assay (confocal imaging); assay type: cell-based, human; details: HEK293 cells, PCZ 20 and 30 μM, compared to solvent-treated cells
Method: Cells were fixed with 4% PFA and permeabilized with 0.5% Triton X-100 in PBS. After a blocking with 5% skim milk in PBS, DENV protein expression was detected in cells incubated with mouse anti-DENV-2 NS3 antibody (49), then Alexa Fluor-488-conjugated anti-mouse secondary antibody (Molecular Probes) for 1 h at room temperature. The nuclei were stained with DAPI or Hoechst (Molecular Probes). Cells were examined under an inverted fluorescence microscope (Olympus 1X71). For confocal microcopy, cells were seeded on coverslips in 24-well culture plates. After virus absorption and treatment, cells were extensively washed with cold washing buffer and PBS, then fixed with cold 4% PFA. Cells were washed twice with cold 10 mM glycine solution, then PBS. For clathrin staining, cells were permeabilized with 0.5% Triton X-100 in PBS and blocked with 5% BSA in PBS. Cells were stained with mouse anti-clathrin heavy chain (X22) (Pierce, MA1-065), then anti-mouse Alexa Fluor-568-conjugated secondary antibody (Molecular Probes). The coverslip was mounted onto a slide and examined under confocal laser scanning microscope (ZEISS LSM 700).

DENV-2 [3] = experiment: Virus entry assay (confocal microscopy, plaque-forming assay of internalized virus); assay type: cell-based, Dengue virus serotype 2
Method: Solvent control or PCZ (15 and 20 μM) was added 15 min before the end of virus adsorption. After a washing with PBS, cells were then shifted to 37° C. for an additional 1 h incubation. Live-cell staining was performed before cell fixation to label the cell membrane with CellMask (red) and nuclei with Hoechst (blue). […] (B) Plaque-forming assay of internalized DENV-2. […] After a washing with PBS, cells were shifted to 37° C. for an additional 1 h. Cells were physically destroyed to release the internalized DENV-2 and internalized virus was quantified by plaque-forming assays.
At 15 min before the end of virus adsorption, PCZ was added to the cell cultures. Cells were gently washed once with cold PBS, then were shifted to a 37° C. CO2 incubator for an additional 1 h to allow virus entry with or without PCZ. […] Cells were washed 3 times with cold washing buffer and once with cold PBS, then were fixed with 4% PFA for 10 min on ice. […] Level of virus titers was determined by plaque-forming assay.

DENV-2 [4] = experiment: D2R dependence of PCZ inhibition of DENV-2 binding in N18, shLacZ-N18 and shD2R-N18 cells (NS3 Western blot); assay type: cell-based, Dengue virus serotype 2
Method: The lentivirus vector pLKO.1 carrying a short hairpin RNA (shRNA) targeting the mouse dopamine D2 receptor (5′-[…]-3′, SEQ ID NO: 1) or LacZ (5′-[…]-3′, SEQ ID NO: 2) from the Taiwan National RNAi Core Facility was cotransfected with pMD.G and pCMVΔR8.91 into HEK293T cells by use of Lipofectamine 2000 (INVITROGEN™). The lentiviruses were harvested from culture supernatants and concentrated by ultracentrifugation at 35,000 rpm in a Beckman SW41 rotor for 3.5 h at 4° C. The viral pellets were resuspended and used to transduce N18 cells. The D2R-deficient N18 cells (shD2R-N18) and LacZ-control cells (shLacZ-N18) were selected with puromycin (5 μg/ml).

[5] = mice, cited from earlier work
DENV-2 [6] = experiment: Cell-based antiviral assay against DENV-2 (IFA, immunoblotting of NS3, plaque-forming assay); design: species or system Dengue virus serotype 2 (PL046 strain); details: for EC50: read-out: half-maximal effective concentration (EC50) against DENV-2 infection
Method: (A) PCZ cytotoxicity test. HEK293T cells were treated with solvent control or the indicated concentrations of PCZ for 24 h. AlamarBlue, XTT, and LDH assays were carried out to determine cell viability, cell proliferation, and cytotoxicity, respectively. Data are mean and standard deviation (SD) of 3 independent experiments. […] Representative immunofluorescence microscopy (400× magnification) of cells immunostained for DENV-2 NS3 (green) and DAPI for nuclei (blue). […] Plaque-forming assay of viral progeny production (plaque forming unit, PFU/ml) in culture supernatants of cells in panel C (D). Data are mean and SI) of 2 independent experiments. *P<0.05.
(A) PCZ cytotoxicity test. HEK293T cells were treated with solvent control or the indicated concentrations of PCZ (5, 10, 15, 20 and 25 μM). AlamarBlue, XTT and LDH assays were carried out to determine cell viability, cell proliferation, and cytotoxicity, respectively. […] (D) Plaque-forming assay of viral progeny production (plaque forming unit, PFU/ml): Data are mean and SD of two independent experiments. **P<0.01. […] BHK-21 cells (E) and N18 cells (F) infected with DENV-2 (MOI=0.1) were treated with or without PCZ for 2 days and 1 day, respectively.
HEK293T cells were infected with DENV-2 (MOI=0.1) with or without haloperidol for 1 day.
Monolayers of cells (HEK293T, BHK-21 and N18) in 6- or 12-well plates were infected with DENV-2 at the indicated multiplicity of infection (MOI). Virus was adsorbed for 2 h with the indicated concentrations of PCZ, then cells were washed thoroughly to remove unbound viruses and incubated for an additional 24 to 48 h with or without PCZ. The antiviral effect of PCZ was evaluated by immunofluorescence assay (IFA), immunoblotting and plaque-forming assay.
Cells were fixed with 4% PFA and permeabilized with 0.5% Triton X-100 in PBS.

DENV-2 replicon = DENV-2 replicon dual luciferase assay; assay type: cell-based, Dengue virus serotype 2; details: HEK293T, PCZ 10 μM applied 5 h post-transfection
Method: DENV-2 replicon was constructed to contain the SP6 promoter upstream of a Renilla luciferase gene flanked by the DENV 5′ UTR plus a portion of the core gene in the 5′ end; portions of the envelope gene, full length of non-structural genes and 3′ UTR in the 3′ end. In vitro transcription was performed to generate the replicon RNA. HEK293T cells were co-transfected with replicon RNA and control firefly luciferase RNA. PCZ (10 μM) was applied to the transfected cells at 5 h post-transfection. Cells were then harvested at the indicated times for dual luciferase assays. Data are mean and SD of relative renilla luciferase to firefly luciferase from two independent experiments.

DENV-2 NGC-N strain = experiment: Animal study: DENV-2 challenge of Stat1-deficient mice; assay type: in vivo
Method: Stat1^−/− mice were challenged with 5×10^4 PFU/mouse of DENV-2 NGC-N strain. The protective effect of PCZ dimaleate (A) and PCZ dimethanesulfonate (Novamin Injection) (B) were tested with immediate and 6-h delay treatment. (A) The mice received phosphate buffered saline (PBS; vehicle control, n=10), 5 mg (n=8) or 1 mg (n=8) PCZ-dimaleate/kg body weight/i.p. at the time of infection (immediate treatment), or 5 mg PCZ-dimaleate/kg body weight/i.p. at 6 h post-infection (6-h delay treatment, n=8). Mice received follow-up treatment with PBS (vehicle control) or half the dose of PCZ-dimaleate orally every 12 h until day-10 post infection. […] The days with treatment are marked by arrows. Mice survival was checked daily and the data are presented as percentage of survival.
The mouse experiments were approved and performed in accordance with the guidelines of the Academia Sinica Institutional Animal Care and Utilization Committee. Groups of 5-week-old Stat1-deficient (SaT1^−/−) mice were challenged intraperitoneally (i.p.) with 5×10^4 plaque-forming units (PFU)/mouse of DENV-2 NGC-N strain and simultaneously injected with 30 μl PBS intracranially (i.c.) into the right hemisphere of the brain. To study the efficacy of PCZ-dimaleate administered mainly by an oral route, mice were divided into 4 groups for treatment: PBS (vehicle control); 5 or 1 mg of PCZ/kg body weight/i.p. at the time of infection (immediate treatment); or 5 mg of PCZ/kg body weight/i.p. at 6 h post-infection (6-h delay treatment). Thereafter, twice a day, mice received a half dose of the first treatment orally with PBS (vehicle control) or 2.5 or 0.5 mg of PCZ/kg body weight/oral/12 h up to day 10 post-infection. […] Thereafter, every 2 days, mice received PBS or the same dose of PCZ up to day 10 post-infection. The mice were checked daily for mortality.

[7] = tested on: Japanese encephalitis virus (JEV); experiment: Antiviral assay against JEV (NS3 Western blot); assay type: cell-based; details: BHK-21 cells, MOI=0.1, 2 days
[8] = target: mouse dopamine D2 receptor (mouse) (UniProt P61168)
Sequence of mouse dopamine D2 receptor (mouse) (P61168 other isoform, or with tags, fused parts or gaps): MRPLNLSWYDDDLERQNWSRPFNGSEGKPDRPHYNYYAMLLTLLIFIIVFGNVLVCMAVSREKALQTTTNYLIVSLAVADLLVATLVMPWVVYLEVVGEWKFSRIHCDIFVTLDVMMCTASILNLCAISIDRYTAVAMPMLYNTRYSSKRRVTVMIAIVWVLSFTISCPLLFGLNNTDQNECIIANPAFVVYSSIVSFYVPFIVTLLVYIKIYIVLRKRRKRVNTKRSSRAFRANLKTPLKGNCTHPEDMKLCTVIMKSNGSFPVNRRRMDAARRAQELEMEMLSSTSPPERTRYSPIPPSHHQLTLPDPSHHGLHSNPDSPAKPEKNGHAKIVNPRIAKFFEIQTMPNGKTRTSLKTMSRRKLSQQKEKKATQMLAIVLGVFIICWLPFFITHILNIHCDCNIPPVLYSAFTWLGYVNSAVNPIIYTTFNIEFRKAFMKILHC

DENV-1 = experiment: Antiviral assay against DENV-1 (NS3 Western blot); details: HEK293T, MOI=0.1, 2 days
[9] = 2 mg PCZ/kg body weight/2 days i.p., immediate treatment

## CN(C)CCCN1c2ccccc2Sc2ccc(Cl)cc21 [Chlorpromazine]
[1]
  clathrin-dependent endocytosis: inhibits clathrin-dependent endocytosis

## CN1CCN(CCCN2c3ccccc3Sc3ccc(Cl)cc32)CC1 [PCZ, prochlorperazine]
DENV-2 [2]; A549 cells, MOI=5
  DENV-2 binding quantified by plaque forming assay: dose-dependently reduced
DENV-2 [2]; HEK293T, PCZ 1 h before and during virus adsorption at 4° C.
  levels of DENV-2 bound to the cell surface (confocal imaging): reduced the levels of DENV-2 bound to the cell surface
HCV
  anti-HCV activity: showed anti-HCV activity
clathrin
  cellular clathrin distribution: showed a distinct clathrin distribution
DENV-2 [3]; BHK-21 cells, MOI=5
  levels of DENV-2 internalization quantified by plaque forming assay: significantly reduced
DENV-2 [3]; HEK293T, PCZ 15 and 20 μM, 1 h at 37° C.
  amounts of DENV-2 in the intracellular compartment (confocal microscopy): greatly reduced
DENV-2 [4]; N18 cells
  antiviral effect of PCZ given during binding (NS3): noted
DENV-2 [4]; shD2R-N18 cells (D2R-deficient)
  antiviral effect of PCZ given during binding (NS3): not
DENV-2 [4]; shLacZ-N18 cells (control knockdown)
  antiviral effect of PCZ given during binding (NS3): noted
[5]; i.p. injection
  LD50: 191 mg/kg body weight
[5]; oral route
  LD50: 400 mg/kg body weight
DENV-2 [6]; Dengue virus, DENV2, HEK-293T
  EC50: 88.4 nM
DENV-2 replicon
  relative renilla luciferase to firefly luciferase (DENV-2 translation and RNA replication): No significant difference
DENV-2 NGC-N strain; oral administration at 5 μg/gram body weight daily
  protection of DENV-2 challenge mice: completely protected

## CN1CCN(CCCN2c3ccccc3Sc3ccc(Cl)cc32)CC1 [PCZ-dimaleate, Prochlorperazine dimaleate]
DENV-2 [6]; BHK-21 cells, MOI=0.1, 2 days
  antiviral effect against DENV-2 infection (NS3 Western blot): shows antiviral effect against DENV-2 infection
DENV-2 [6]; HEK293T, MOI=0.1, PCZ 5, 10 and 15 μM, 2 days
  antiviral activity against DENV-2 infection: exhibits antiviral activity against DENV-2 infection
DENV-2 [6]; N18 cells, MOI=0.1, 1 day
  antiviral effect against DENV-2 infection (NS3 Western blot): shows antiviral effect against DENV-2 infection
[7]
  JEV infection (NS3 Western blot): inhibits Japanese encephalitis virus (JEV) infection
DENV-2 NGC-N strain; 1 mg PCZ/kg body weight/day, immediate treatment
  animal mortality timing: delayed animal mortality
DENV-2 NGC-N strain; 1 mg PCZ/kg body weight/day, immediate treatment, first i.p. then oral
  overall animal survival: 50%
DENV-2 NGC-N strain; 5 mg PCZ/kg body weight, 6-h delay treatment
  death timing: delayed death
DENV-2 NGC-N strain; 5 mg PCZ/kg body weight, 6-h delay treatment, 10 days
  overall survival: 50%
DENV-2 NGC-N strain; 5 mg/kg body weight/day, immediate treatment, first i.p. then oral, 10 days
  protection against death: completely protected against death

## O=C(CCCN1CCC(O)(c2ccc(Cl)cc2)CC1)c1ccc(F)cc1 [haloperidol]
DENV-2 [6]; HEK293T, MOI=0.1, 1 day
  antiviral activity against DENV-2 infection (NS3 Western blot): showed antiviral activity against DENV-2 infection

## DENV-2 PL046 strain (dengue virus serotype 2), whole virion
[8]
  fold lower cell-bound virus on D2R-knockdown cells than on controls: 6 times

## prochlorperazine dimethanesulfonate [PCZ-Novamin]
DENV-1
  DENV-1 replication (NS3 Western blot): reduced DENV-1 replication
DENV-2 [6]; DENV-2-infected HEK293T cells, IFA and Western blot
  protein expression of viral NS3: dose-dependently reduced
DENV-2 [6]; HEK293T cells, calculated by a published method
  EC50: 88.4 nM
DENV-2 [6]; HEK293T, DENV-2 MOI=1, 24 h
  viral progeny production by plaque-forming assay: significantly reduced viral progeny production
DENV-2 NGC-N strain; [9]
  DENV-2-induced lethality timing: slightly delayed
  overall survival: 20%
DENV-2 NGC-N strain; 4 mg PCZ/kg body weight/2 days i.p., immediate treatment
  protection against DENV-2 challenge after 10 days of infection: completely protected
DENV-2 NGC-N strain; 4 mg PCZ/kg/2 days i.p., immediate treatment
  overall survival: 40%
DENV-2 NGC-N strain; 4 mg kg body weight/2 days i.p., from 6 h post-infection
  overall survival and mortality timing: did not improve the overall survival but delayed the mortality
DENV-2 NGC-N strain; 8 mg PCZ/kg body weight/2 days i.p., from 6 h post-infection
  mice surviving the DENV-2 challenge: 40%
DENV-2 NGC-N strain; 8 mg PCZ/kg body weight/2 days i.p., immediate treatment
  protection against DENV-2 challenge after 10 days of infection: completely protected
DENV-2 NGC-N strain; 8 mg PCZ/kg/2 days i.p., immediate treatment
  state of mice after treatment stopped at day 10 post-infection: remained healthy
